Key:
Format in all cases: cell-based
Conditions in all cases: after 10, 20, 40 and 60 minutes at all dilutions 1:100, 1:200, 1:400, 1:800
Escherichia coli = assay: antimicrobial screening by agar dilution, E. coli
Protocol: (§1) The antimicrobial properties of the 4,5-bis(4-bromophenyl)-1-hexyl-2-(3,4-dimethoxyphenyl)-1H-imidazole was studied by the method of agar dilution. Test solutions of each compound was prepared in concentration of 1% using dimethylformamide as a solvent then they were diluted in physiological solution to obtain the final experimental dilutions 1: 100, 1:200, 1:400, 1:800. The effect of these substances were compared with furacillin in a controlled study. The testing microbes used were gram positive bacteria Staphylococcus aureus, gram negative bacteria Pseudomonas aeruginosa and Escherichia coli and Candida albicans fungi were taken. The experiments used for this survey were meat-pentonlu agar (EPA) for cultivation of bacteria and Saburo environment for fungi. Each experiment used 1 ml of test solution on each plate 500 min. Add 2 drops of emulsified with microbes feel. All experimental samples were taken from the agar after 10, 20, 40, 60 minutes in the environment on the basis of Patrk planted. Bacteria were cultivated at a temperature of 37° C. for 1 day and the mushroom was kept in a thermostat for […] at a temperature of 28° C. Then results were checked.

Pseudomonas aeruginosa = assay: antimicrobial screening by agar dilution, Ps. aeruginosa
Protocol: as §1

Candida albicans = assay: antimicrobial screening by agar dilution, Candida albicans
Protocol: as §1

Staphylococcus aureus = assay: antimicrobial screening by agar dilution, St. aureus
Protocol: as §1

Measured: inhibition activity

CCCCCCn1c(-c2ccc(OC)c(OC)c2)nc(-c2ccc(Br)cc2)c1-c1ccc(Br)cc1 [4,5-bis(4-bromophenyl)-1-hexyl-2-(3,4-dimethoxyphenyl)-1H-imidazole]
highest inhibition activity: Escherichia coli | Pseudomonas aeruginosa | Candida albicans | Staphylococcus aureus

From patent US11981641B1, “4,5-bis(4-bromophenyl)-1-hexyl-2-(3,4-dimethoxyphenyl)-1H-imidazole as an antimicrobial compound” (KING FAISAL UNIVERSITY, priority 2023, dated 2024)
